In ChEMBL document CHEMBL5154793, “Discovery of Thieno[2,3-d]pyrimidine-based KRAS G12D inhibitors as potential anticancer agents via combinatorial virtual screening” (Eur J Med Chem, 2022):
Calls of active or inactive are those of the source. The calls are words filed in the database; no cut-off is given here.

Columns and labels:
[1] = Toxicity in BALB/c mouse allografted with mouse CT26 cells assessed as eosinophil level at 40 to 60 mg/kg, ip administered once a day for 10 days (reference value: 16 to 17.3 %); assay type: organism-based; settings: in vivo, 240 h, dose 40-60 mg/kg, time 10 day
[2] = tested on: GTPase KRas (Homo sapiens), P01116 [G12D]; assay: Binding affinity to human his-tagged KRAS G12D mutant assessed as change in entropy by isothermal titration calorimetry
SW1990 [3] = assay: Inhibition of GTP bound KRAS in human SW1990 cells assessed as down regulation of KRAS-GTP protein level incubated for 12 hrs by Pull-Down based Western blotting analysis; assay type: functional, cell-based; settings: dose 10-20 µM, DDE = dose-dependent effect
PANC-1 = assay: Antiproliferative activity against human PANC1 cells harboring KRAS G12D mutant assessed as inhibition of cell viability after 24 hrs by MTT assay; assay type: functional, cell-based; settings: PANC-1, 24 h
HCT-116 = assay: Antiproliferative activity against human HCT-116 cells harboring KRAS G13D mutant assessed as inhibition of cell viability after 24 hrs by MTT assay; assay type: functional, cell-based; settings: HCT-116, 24 h
SW1990 [4] = assay: Induction of apoptosis in human SW1990 cells assessed as early apoptotic cells at 8 uM measured after 24 hrs by PI/Annexin V staining based flow cytometric analysis (reference value: 10.7%); assay type: functional
GTPase KRas = GTPase KRas (Homo sapiens, UniProt P01116, G12D); assay: Binding affinity to human his-tagged KRAS G12D mutant assessed as dissociation constant by isothermal titration calorimetry
[5] = Toxicity in BALB/c mouse allografted with mouse CT26 cells assessed as basophil level at 40 to 60 mg/kg, ip administered once a day for 10 days (reference value: 0.050 to 40.3 10^9/L); assay type: organism-based; settings: in vivo, 240 h, dose 40-60 mg/kg, time 10 day
CT26 [6] = assay: Induction of apoptosis in mouse CT26 cells assessed as necrotic cells at 8 uM measured after 24 hrs by PI/Annexin V staining based flow cytometric analysis (reference value: 0.789%); assay type: functional
[7] = tested on: GTPase KRas (Homo sapiens), P01116 [G12D]; assay: Inhibition of KRAS G12D mutant downstream signalling in human SW1990 cells assessed as suppression of ERK phosphorylation incubated for 24 hrs by pull down based Western blotting analysis; assay type: cell-based; settings: dose <= 16.0 µM, DDE = dose-dependent effect
CT26 [8] = assay: Antitumor activity against mouse CT26 cells allografted in BALB/c mouse assessed as tumor volume at 60 mg/kg, ip administered once a day for 10 days; assay type: functional; settings: time 10 day
[9] = tested on: GTPase KRas (Homo sapiens), P01116 [G12D]; assay: Binding affinity to human his-tagged KRAS G12D mutant assessed as gibbs free energy change by isothermal titration calorimetry
CT26 [10] = assay: Induction of apoptosis in mouse CT26 cells assessed as viable cells at 4 uM measured after 24 hrs by PI/Annexin V staining based flow cytometric analysis (reference value: 84.8%); assay type: functional; settings: read-out: Activity
SW1990 [11] = assay: Induction of apoptosis in human SW1990 cells assessed as viable cells at 8 uM measured after 24 hrs by PI/Annexin V staining based flow cytometric analysis (reference value: 82.9%); assay type: functional; settings: read-out: Activity
[12] = Toxicity in BALB/c mouse allografted with mouse CT26 cells assessed as PCT level at 40 to 60 mg/kg, ip administered once a day for 10 days (reference value: 0.226 to 6.4 %); assay type: organism-based; settings: in vivo, 240 h, dose 40-60 mg/kg, time 10 day
CT26 [13] = assay: Induction of apoptosis in mouse CT26 cells assessed as late apoptotic cells at 2 uM measured after 24 hrs by PI/Annexin V staining based flow cytometric analysis (reference value: 3.21%); assay type: functional
SW1990 [14] = assay: Induction of apoptosis in human SW1990 cells assessed as late apoptotic cells at 2 uM measured after 24 hrs by PI/Annexin V staining based flow cytometric analysis (reference value: 3.75%); assay type: functional
CT26 [15] = assay: Inhibition of KRAS G12D mutant (unknown origin) downstream signalling in mouse CT26 cells assessed as suppression of ERK phosphorylation incubated for 24 hrs by pull down based Western blotting analysis; assay type: cell-based; settings: dose <= 16.0 µM, DDE = dose-dependent effect
CT26 [16] = assay: Inhibition of KRAS G12D mutant (unknown origin) downstream signalling in mouse CT26 cells assessed as suppression of Raf phosphorylation incubated for 24 hrs by pull down based Western blotting analysis; assay type: cell-based; settings: dose <= 16.0 µM, DDE = dose-dependent effect
CT26 [17] = assay: Antiproliferative activity against mouse CT26 cells harboring KRAS G12D mutant assessed as inhibition of cell viability after 24 hrs by MTT assay; assay type: functional, cell-based; settings: CT26, 24 h
SW1990 [18] = assay: Induction of apoptosis in human SW1990 cells assessed as late apoptotic cells at 4 uM measured after 24 hrs by PI/Annexin V staining based flow cytometric analysis (reference value: 3.75%); assay type: functional
[19] = Toxicity in BALB/c mouse allografted with mouse CT26 cells assessed as MPV level at 40 to 60 mg/kg, ip administered once a day for 10 days (reference value: 15 to 63 fL); assay type: organism-based; settings: in vivo, 240 h, dose 40-60 mg/kg, time 10 day
CT26 [20] = assay: Induction of apoptosis in mouse CT26 cells assessed as late apoptotic cells at 8 uM measured after 24 hrs by PI/Annexin V staining based flow cytometric analysis (reference value: 3.21%); assay type: functional
NCI-H358 = assay: Antiproliferative activity against human NCI-H358 cells harboring KRAS G12C mutant assessed as inhibition of cell viability after 24 hrs by MTT assay; assay type: functional, cell-based; settings: NCI-H358, 24 h
CT26 [21] = assay: In vivo inhibition of KRAS G12D mutant (unknown origin) mediated downstream signalling in mouse CT26 cells allografted in BALB/c mouse assessed as decrease in phosphorylation level of Raf in tumor tissue at 40 to 60 mg/kg, ip administered once a day for 10 days by Western blotting analysis; assay type: functional, organism-based; settings: dose 40-60 mg/kg, time 10.0 day
[22] = Toxicity in BALB/c mouse allografted with mouse CT26 cells assessed as neutrophil level at 40 to 60 mg/kg, ip administered once a day for 10 days (reference value: 1.080 to 1.250 10^9/L); assay type: organism-based; settings: in vivo, 240 h, dose 40-60 mg/kg, time 10 day
[23] = Toxicity in BALB/c mouse allografted with mouse CT26 cells assessed as MCHC level at 40 to 60 mg/kg, ip administered once a day for 10 days (reference value: 338 to 361 g/L); assay type: organism-based; settings: in vivo, 240 h, dose 40-60 mg/kg, time 10 day
[24] = Toxicity in BALB/c mouse allografted with mouse CT26 cells assessed as effect on kidney morphology at 40 to 60 mg/kg, ip administered once a day for 10 days by H and E staining based microscopic analysis; assay type: organism-based; settings: in vivo, 240 h, dose 40-60 mg/kg, time 10 day
SW1990 [25] = assay: Antiproliferative activity against human SW1990 cells harboring KRAS G12D mutant assessed as inhibition of cell viability after 24 hrs by MTT assay; assay type: functional, cell-based; settings: SW1990, 24 h
CT26 [26] = assay: Induction of apoptosis in mouse CT26 cells assessed as late apoptotic cells at 4 uM measured after 24 hrs by PI/Annexin V staining based flow cytometric analysis (reference value: 3.21%); assay type: functional
[27] = Toxicity in BALB/c mouse allografted with mouse CT26 cells assessed as body weight loss at 40 to 60 mg/kg, ip administered once a day for 10 days; assay type: organism-based; settings: in vivo, 240 h, dose 40-60 mg/kg, time 10 day
[28] = Toxicity in BALB/c mouse allografted with mouse CT26 cells assessed as effect on liver morphology at 40 to 60 mg/kg, ip administered once a day for 10 days by H and E staining based microscopic analysis; assay type: organism-based; settings: in vivo, 240 h, dose 40-60 mg/kg, time 10 day

Chain of GTPase KRas (Homo sapiens), P01116 [G12D] (P01116 whole entry G12D, looked up): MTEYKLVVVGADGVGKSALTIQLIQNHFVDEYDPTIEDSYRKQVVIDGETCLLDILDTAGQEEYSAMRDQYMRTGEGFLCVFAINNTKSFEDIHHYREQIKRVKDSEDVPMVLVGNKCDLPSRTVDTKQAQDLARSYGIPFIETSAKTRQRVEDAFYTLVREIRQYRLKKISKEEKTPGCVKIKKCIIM
Chain of GTPase KRas (P01116 whole entry G12D): as the sequence (P01116 whole entry G12D, looked up) above

-TdeltaS [2]: 16.4 kcal/mol | IC50 (PANC-1): 2300 nM | IC50 (HCT-116): 4.7 µM | Kd (GTPase KRas): 33 nM | Activity [7]: Dde | deltaG [9]: -10.2 kcal/mol | IC50 (CT26 [17]): 2000 nM | IC50 (NCI-H358): 4.5 µM | IC50 (SW1990 [25]): 2100 nM
SMILES: COc1ccc(C(F)(F)F)cc1-c1cc2c(N3CC4CCC(C3)N4)ncnc2s1
Activity [1]: 0.2% | inhibition (SW1990 [3]): Dde | Activity (SW1990 [4]): 37.1% | Activity [5]: 0.01 10^9/L | Activity (CT26 [6]): 6.61% | Activity (CT26 [8]): 11% | viability at 4 µM (CT26 [10]): 38.8% | viability at 8 µM (SW1990 [11]): 4.26% | Activity [12]: 0.372% | Activity (CT26 [13]): 4.59% | Activity (SW1990 [14]): 18.6% | Activity (CT26 [15]): Dde | Activity (CT26 [16]): Dde | Activity (SW1990 [18]): 29.2% | Activity [19]: 6.2 fL | Activity (CT26 [20]): 60.4% | Activity (CT26 [21]): Active | Activity [22]: 1.92 10^9/L | Activity [23]: 336 g/L | Activity [24]: Non-Toxic | Activity (CT26 [26]): 20.9% | Activity [27]: Non-Toxic | Activity [28]: Non-Toxic
